Measurements reported in patent US10106853B2, “CUL4B as predictive biomarker for cancer treatment” (CORNELL UNIVERSITY, priority 2012, dated 2018).

Key:
Top1 = molecular target: T1, Top1 (Homo sapiens, UniProt P11387); test: CPT-induced TOP1 down regulation assay (immunoblotting); type: cell-based
T1 construct: CPT-induced TOP1 degradation in breast cancer cell lines; host or cells: human breast cancer cell lines BT474, BT20, MCF-7, MDA-MB-231, T47D, Sk-Br-3 (MCF-10A as control)
T1 sequence (P11387 1-765): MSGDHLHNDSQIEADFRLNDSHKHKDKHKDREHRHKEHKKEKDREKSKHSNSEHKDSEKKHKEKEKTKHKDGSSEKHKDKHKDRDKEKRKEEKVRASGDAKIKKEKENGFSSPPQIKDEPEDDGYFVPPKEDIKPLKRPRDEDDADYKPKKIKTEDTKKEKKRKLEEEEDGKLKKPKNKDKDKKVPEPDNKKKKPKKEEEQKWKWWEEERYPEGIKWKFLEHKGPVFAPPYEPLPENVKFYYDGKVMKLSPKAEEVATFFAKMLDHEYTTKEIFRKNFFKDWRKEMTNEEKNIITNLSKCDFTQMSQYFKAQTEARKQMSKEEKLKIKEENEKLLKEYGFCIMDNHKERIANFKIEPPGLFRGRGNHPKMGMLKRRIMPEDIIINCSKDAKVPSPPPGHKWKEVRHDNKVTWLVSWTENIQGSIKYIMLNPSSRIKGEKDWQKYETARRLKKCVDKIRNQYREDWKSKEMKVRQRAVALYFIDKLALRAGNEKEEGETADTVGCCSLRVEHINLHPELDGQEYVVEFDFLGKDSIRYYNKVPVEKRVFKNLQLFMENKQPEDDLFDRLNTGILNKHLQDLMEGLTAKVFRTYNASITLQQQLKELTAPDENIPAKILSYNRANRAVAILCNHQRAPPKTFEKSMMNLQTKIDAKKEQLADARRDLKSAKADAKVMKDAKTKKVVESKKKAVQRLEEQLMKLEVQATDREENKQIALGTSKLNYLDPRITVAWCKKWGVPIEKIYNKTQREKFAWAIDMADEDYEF
Experimental: FIG. 1. CPT-induced TOP1 degradation in breast cancer cell lines. A) Expression of endogenous CUL4A and 4B in breast cancer cell lines. Total cell lysates were prepared from the indicated breast cancer cell lines and subjected to SDS PAGE and immunoblotting with antibodies against CUL4A, 4B and α-tubulin. The non-cancerous MCF-10A cell line was used as a control for comparison. B) CPT-induced TOP1 degradation in breast cancer cell lines. Cells were treated with 12.5 μM CPT or 1% DMSO for 4 hours, replenished with CPT-free fresh medium and incubated at 37° C. for 30 minutes to reverse the formation of TOP1 cleavable complex. Cells were then lysed and immunoblotted with the TOP1 and α-tubulin antibodies.
FIG. 2. CUL4B interacted with Top1 and induced Top1 degradation in the presence of CPT. A) Knockdown of CUL4B impaired CPT-induced Top1 degradation. BT474 cells were infected with lentiviral shCUL4B, shCUL4A or control non-targeting shRNA, and selected for stable CUL4B^k/d or CUL4A^k/d cells upon treatment with puromycin. Following treatment with CPT (50 μM) for 1 hour, cells were replenished with CPT-free fresh medium and incubated at 37° C. for 30 minutes. Top1 degradation was assessed by immunoblotting with an anti-Top1 antibody. Levels of α-tubulin were measured as a loading control. B) Association of CUL4B with Top1 following CPT treatment. BT474 cells were treated with proteosome inhibitor MG132 (15 μM) for 3 hours, and were subjected to crosslinking with 0.2 mM Dithiobis[succinimidyl propionate](DSP) for the last 30 min at room temperature. Cell lysates were prepared, and immunoprecipitated with the anti-Top1 or anti-CUL4B antibodies, and then immunoblotted using antibodies against CUL4B or Top1, respectively. IgG immunoprecipitates served as the negative control. C) Knockdown of CUL4B using a second shCUL4B-2 impaired CPT-induced Top1 degradation. BT474 cells were infected with lentiviral shCUL4B-2, shCUL4A-2 or control non-targeting shRNA and selected for stable CUL4B^k/d or CUL4A^k/d cells upon treatment with puromycin. Following treatment with CPT (50 μM) for 1.5 hr, cells were replenished with CPT-free fresh medium and incubated at 37° C. for 30 min. Top1 degradation was assessed by immunoblotting with the anti-Top1 antibody. Levels of α-tubulin were measured as a loading control. D) CUL4B inactivation sensitized BT474 cells to cytotoxic killing by camptothecin. BT474, BT474-CUL4A^k/d or BT474-CUL4B^k/d cells were synchronized with 1 μM nocodazole for 13 hours released in fresh medium, treated with the indicated concentrations of CPT for three days, and subjected to the XTT assay to measure the cytotoxic responses to CPT. […] The bars indicate the S.E. of six independent experiments. Statistical significance in cellular response to CPT between control BT474 cells and CUL4A^k/d or CUL4B^k/d cells were assessed by a two-tailed unpaired student t-test (***: p<0.001). The same results were obtained with a second lentiviral shRNA for CUL4A and CUL4B, as well as in T47D breast cancer cells. E, F) Knockdown of CUL4B increased the sensitivity of T47D cells to camptothecin. […] Statistical significance in cellular response to camptothecin between control cells and CUL4A^k/d or CUL4B^k/d BT474 cells are assessed by student's t-test.
CPT-induced Top1 degradation was monitored by immunoblotting of the alkaline lysates. […]

BT474 cells = test: Apoptosis by Western blotting of cleaved caspase-3 and PARP; type: cell-based, Human; settings: CUL4B-silenced BT474 cells vs control cells
Experimental: FIG. 4. Marked enhancement of apoptosis in BT474-CUL4B^k/d cells following CPT treatment. A, B) Control (shCtrl) or CUL4B^k/d BT474 (shCUL4B) cells were treated with indicated concentrations of CPT for 72 hours (A) or 100 nM CPT for 1, 2 and 3 days (B). Cells were then lysed and immunoblotted with antibodies against native or cleaved caspase 3 or PARP to measure the induction of apoptosis. C) Control, CUL4A^k/d and CUL4B^k/d BT474 cells were treated with 100 nM CPT for 3 days. Cell lysates were prepared and immunoblotted with antibodies against native or cleaved PARP.
DNA double stranded breaks are one of the most cytotoxic lesions as persistence of γH2AX foci after the initial induction of DNA damage leads to apoptosis. To examine whether CUL4B knockdown affects the sensitivity of breast cancer cells to CPT-induced apoptosis, BT474 cells were treated with CPT and analyzed for induction of apoptosis, as exemplified by cleavage of caspase-3 and PARP.

Compound	CPT-induced Top1 degradation compared to control (shCtrl) (Top1; CUL4A knockdown BT474 cells, CPT 50 μM, 1 hour)	CPT-induced Top1 degradation (Top1; CUL4B-silenced (CUL4B k/d) BT474 cells, CPT 50 μM, 1 hour)	Top1 degradation following treatment with CPT (Top1; breast cancer cells exhibiting elevated levels of CUL4B expression, 12.5 μM CPT, 4 hours)	Induction of apoptosis (cleaved caspase-3 and PARP) post-CPT treatment (BT474 cells)	Effect of shRNA knockdown on CPT-induced Top1 degradation (Top1; BT474 cells, lentiviral shRNA, CPT 50 μM, 1 to 1.5 hr)
CC[C@@]1(O)C(=O)OCc2c1cc1n(c2=O)Cc2cc3ccccc3nc2-1 [CPT, (S)-4-ethyl-4-hydroxy-1H-pyrano[3′,4′:6,7]indolizino[1,2-b]quinoline-3,14-(4H, 12H)-dione]	no effect	abolished	eliminated or markedly destroyed Top1	robust induction of apoptosis	–
shCUL4B: lentiviral shRNA CUL4B sequence purchased from Sigma Aldrich, reduces CUL4B expression (CCGGGCAGAATTTAAAGAGGGTAAACTCGAGTTTACCCTCTTTAAATTCTGCTTTTT)	–	–	–	–	impaired
